Measurements from patent US20030068322A1, “Methods of antibody-directed enzyme-prodrug therapy” (IMMUNOMEDICS, INC., priority 1988, published 2003).

Experiments:
[1] = versus CPT-11; cited from earlier work
lymphoma = experiment: Therapy of lymphoma in a human patient; type: in vivo; conditions: 10 mg i.v. on each of 4 days after anti-lymphoma IgG-glucuronidase conjugate
Experimental: A human patient suffering from lymphoma is infused intravenously with a sterile, pyrogen-free PBS solution containing 5 mg of an anti-lymphoma IgG-glucuronidase conjugate prepared according to the example above, and labeled with I-131. […] The patient is then infused intravenously with a sterile, pyrogen-free PBS solution containing 10 mg of epirubicin glucuronide, prepared according to the example above, on each of the next 4 days.

[2] = biological target: T1, human beta-D-glucuronidase (Homo sapiens, UniProt P08236); conditions: Arcamone, Cancer Res. 45:5995 (1985); cited from earlier work
T1 sequence (P08236 23-651): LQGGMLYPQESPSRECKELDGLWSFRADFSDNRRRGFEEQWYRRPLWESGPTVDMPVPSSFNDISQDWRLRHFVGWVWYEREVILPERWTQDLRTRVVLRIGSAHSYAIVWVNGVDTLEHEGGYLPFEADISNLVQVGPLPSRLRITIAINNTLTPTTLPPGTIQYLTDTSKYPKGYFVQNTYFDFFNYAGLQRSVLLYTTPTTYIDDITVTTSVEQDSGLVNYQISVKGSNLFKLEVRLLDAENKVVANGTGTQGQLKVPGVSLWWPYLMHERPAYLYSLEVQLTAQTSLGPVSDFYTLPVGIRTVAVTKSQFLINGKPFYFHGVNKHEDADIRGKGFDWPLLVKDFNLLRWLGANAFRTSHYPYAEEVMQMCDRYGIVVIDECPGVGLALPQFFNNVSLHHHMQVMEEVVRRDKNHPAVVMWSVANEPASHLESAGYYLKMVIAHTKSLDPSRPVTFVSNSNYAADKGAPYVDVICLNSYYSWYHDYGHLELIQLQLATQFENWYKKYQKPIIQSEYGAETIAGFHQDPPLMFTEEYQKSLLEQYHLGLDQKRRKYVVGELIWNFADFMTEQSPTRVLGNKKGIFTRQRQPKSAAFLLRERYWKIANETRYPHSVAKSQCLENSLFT

## CCc1c2c(nc3ccc(O)cc13)-c1cc3c(c(=O)n1C2)COC(=O)[C@]3(O)CC [SN-38]
[1]
  toxicity relative to CPT-11: at least one hundred-fold more toxic

## COc1cccc2c1C(=O)c1c(O)c3c(c(O)c1C2=O)C[C@@](O)(C(=O)CO)C[C@@H]3O[C@H]1C[C@H](N)[C@@H](O[C@@H]2O[C@H](C(=O)O)[C@@H](O)[C@H](O)[C@H]2O)[C@H](C)O1 [epirubicin glucuronide]
lymphoma
  reduction in lymphoma by radioimmunodetection: significant reduction in the lymphoma

## COc1cccc2c1C(=O)c1c(O)c3c(c(O)c1C2=O)C[C@@](O)(C(=O)CO)C[C@@H]3O[C@H]1C[C@H](N)[C@@H](O)[C@H](C)O1 [epirubicin]
[2]
  substrate for human beta-D-glucuronidase: has been shown to be a substrate
